Results published in patent US20220087990A1, “APPLICATION OF RIFAMYCIN-QUINOLIZIDONE CONJUGATE MOLECULE AND PHARMACEUTICALLY ACCEPTABLE SALT THEREOF” (priority 2019, published 2022).
Values after ≈ are worked out from the molar mass of the structure shown. “Also recorded” adds a separate entry of the source. Like-named read-outs stand apart in the source and are kept apart here.

What was measured:
Assay type in all cases: cell-based
[1] = tested on: Staphylococcus aureus MMX 3265, 3270, 3278, and 6312; conditions: for Cell counts (mean): 1 used if no colonies
Method: Each test agent stock solution was prepared at 100× the final desired test concentration for the spontaneous mutation frequency assay agar plates.
The drug/agar mixture was dispensed into sterile 150×15 mm plates (BD Falcon) to a volume of 50 mL in each plate. The target inoculum for each spontaneous mutation plate was at least 10^9 CFU. Plates were allowed to solidify at room temperature.
The inocula for the spontaneous mutation frequency assay were prepared by using sterile cotton swabs to harvest colonies from freshly grown isolates and preparing a dense cell suspension (approximately 1.70 on the turbidity meter) in 6 mL of CAMHB. The viable count of this suspension was determined by plating serial ten-fold dilutions onto MHA and taking the average of duplicate counts. For the spontaneous mutation assay, 0.25 mL of inoculum was spread onto the surface of duplicate 150×15 mm plates for each drug concentration tested, allowed to dry, and then the plates were inverted and incubated at 35° C. for 48 hr prior to counting viable colonies. The spontaneous mutation frequency was calculated using the following equation:
Spontaneous mutation frequency=average number of colonies on selected plates/total number of cells incubated onto each plate
If there were no colonies on the antibiotic selection plates, the spontaneous mutation frequency was reported as less than or equal to the mutation frequency that would have resulted from the presence of one colony (e.g. 1/total number of cells inoculated onto the plate).

[2] = tested on: Staphylococcus aureus ATCC 29213; experiment: MIC measured by agar dilution method, quality control strain; conditions: strain 100, MSSA QC strain
Method: (§1) Spontaneous mutation and minimal inhibit concentration (MIC) tested by agar dilution method, the above compounds are respectively prepared into a stock solution (100X) with a concentration 100 times the highest final concentration in corresponding solvents and used on the same day. Before use, I is further diluted with DMSO; and oxacillin, rifampicin and levofloxacin are further diluted with water.
(§2) Bacterial isolates: Staphylococcus aureus isolates are retrieved from the −80° C. storage room of Micromyx Culture Collection, thawed, plated onto Tryptic Soy Agar+5% sheep blood (Remel; Lenexa, Kans.), and then incubated aerobically at 35° C. overnight. S. aureus ATCC 29213 (MRSA; MMX 0100) was included during testing only for the purpose of quality control. Test Media: The isolates were tested in both the agar dilution MIC assay and the spontaneous mutation assay using Mueller-Hinton Agar (MHA; BD/BBL; Lot No. 6229829 & 4216798). Inocula of each isolate were suspended in cation-adjusted Mueller-Hinton Broth (CAMHB) (BD/BBL; Lot Nos. 5257869 & 6258541). Sodium chloride (Sigma-Aldrich; Lot No. SLBL0434V) was added to CAMHB at a final concentration of 2% when testing oxacillin. Dilutions of bacterial cell suspensions for the purpose of performing colony counts were also made in CAMHB.
(§3) MIC measured by agar dilution method: according to the recommendation from the Clinical and Laboratory Standards Institute (CLSI), the MIC value is measured by the agar dilution method. […] Each test agent was combined with molten MHA agar (50-55° C.) at a ratio of 0.2 mL of 100× test agent to 19.8 mL agar in a sterile tube, mixed gently, and then poured into a sterile petri plate (BD Falcon). Plates were allowed to solidify at room temperature. A 0.5 McFarland standard bacterial suspension was prepared, diluted 1:10 in CAMHB, and transferred to the wells of a stainless steel replicator block before stamping onto plates containing drug, resulting in 10^4 CFU/spot. After allowing the inoculum to dry on the surface of the agar, the plates were inverted, incubated aerobically at 35° C. for 20-24 hr, and inspected for growth.
In parallel experiments, a standard bacterium suspension with a […] turbidity of 0.5 is prepared as a standard inoculum for agar dilution analysis (10^4 CFU/point). […] In this step, the broths and drugs used in the spontaneous mutation analysis are used to confirm that the concentration of the drug stock solution can inhibit the growth of the standard inoculum. The quality of the levofloxacin stock solution is controlled by a standard inoculum and levofloxacin of 8-0.008 μg/mL, and separate agar dilution analysis is performed. […]

[3] = tested on: Staphylococcus aureus ATCC 29213; experiment: MIC measured by fluid broth microdilution method (quality control); conditions: ATCC29213
[4] = tested on: methicillin-resistant Staphylococcus aureus (MRSA) isolates; experiment: MIC measured by agar dilution method (CLSI); conditions: Staphylococcus aureus, MRSA, agar dilution
Method: as §1, §2, §3

[5] = isolate 3265 LEV^R RIF^S, drug 0.5 μg/mL in plates (combination 0.5 each), inoculation 5.40E+09 CFU
[6] = isolate 3265 LEV^R RIF^S, drug 2 μg/mL in plates (combination 2 each), inoculation 5.40E+09 CFU
[7] = isolate 3265 LEV^R RIF^S, drug 8 μg/mL in plates (combination 8 each), inoculation 5.40E+09 CFU
[8] = isolate 3270 LEV^R RIF^S, drug 0.5 μg/mL in plates (combination 0.5 each), inoculation 5.30E+09 CFU
[9] = isolate 3270 LEV^R RIF^S, drug 2 μg/mL in plates (combination 2 each), inoculation 5.30E+09 CFU
[10] = isolate 3270 LEV^R RIF^S, drug 8 μg/mL in plates (combination 8 each), inoculation 5.30E+09 CFU
[11] = isolate 3278 LEV^S RIF^S, drug 0.5 μg/mL in plates (combination 0.5 each), inoculation 3.80E+09 CFU
[12] = isolate 3278 LEV^S RIF^S, drug 2 μg/mL in plates (combination 2 each), inoculation 3.80E+09 CFU
[13] = isolate 3278 LEV^S RIF^S, drug 8 μg/mL in plates (combination 8 each), inoculation 3.80E+09 CFU
[14] = isolate 6312 LEV^R RIF^S, drug 0.5 μg/mL in plates (combination 0.5 each), inoculation 3.90E+09 CFU
[15] = isolate 6312 LEV^R RIF^S, drug 2 μg/mL in plates (combination 2 each), inoculation 3.90E+09 CFU
[16] = isolate 6312 LEV^R RIF^S, drug 8 μg/mL in plates (combination 8 each), inoculation 3.90E+09 CFU

CO[C@H]1/C=C/O[C@@]2(C)Oc3c(C)c(O)c4c(O)c(c(/C=N/N5CCC(N(C)C6([C@@H]7CCN(c8c(F)cn9c(=O)c(C(=O)O)cc(C%10CC%10)c9c8C)C7)CC6)CC5)c(O)c4c3C2=O)NC(=O)/C(C)=C\C=C\[C@H](C)[C@H](O)[C@@H](C)[C@@H](O)[C@@H](C)[C@H](OC(C)=O)[C@@H]1C [I]
spontaneous mutants / development of drug resistance (in words) ([1]; four MRSA isolates, 0.5, 2 or 8 μg/mL): No spontaneous mutants are recovered; also recorded: none of the four MRSA strains under test develops drug resistance | Cell counts (mean) ([1]; isolate 3265, drug 0.5 μg/mL): 1^1 | Cell counts (mean) ([1]; isolate 3265, drug 2 μg/mL): 1 | Cell counts (mean) ([1]; isolate 3265, drug 8 μg/mL): 1 | Cell counts plate A [1, 5]: 0 | Cell counts plate B [1, 5]: 0 | Mutation frequency [1, 5]: <1.85E−10 | Cell counts plate A [1, 6]: 0 | Cell counts plate B [1, 6]: 0 | Mutation frequency [1, 6]: <1.85E−10 | Cell counts plate A [1, 7]: 0 | Cell counts plate B [1, 7]: 0 | Mutation frequency [1, 7]: <1.85E−10 | Cell counts (mean) ([1]; isolate 3270, drug 0.5 μg/mL): 1 | Cell counts (mean) ([1]; isolate 3270, drug 2 μg/mL): 1 | Cell counts (mean) ([1]; isolate 3270, drug 8 μg/mL): 1 | Cell counts plate A [1, 8]: 0 | Cell counts plate B [1, 8]: 0 | Mutation frequency [1, 8]: <1.89E−10 | Cell counts plate A [1, 9]: 0 | Cell counts plate B [1, 9]: 0 | Mutation frequency [1, 9]: <1.89E−10 | Cell counts plate A [1, 10]: 0 | Cell counts plate B [1, 10]: 0 | Mutation frequency [1, 10]: <1.89E−10 | Cell counts (mean) ([1]; isolate 3278, drug 0.5 μg/mL): 1 | Cell counts (mean) ([1]; isolate 3278, drug 2 μg/mL): 1 | Cell counts (mean) ([1]; isolate 3278, drug 8 μg/mL): 1 | Cell counts plate A [1, 11]: 0 | Cell counts plate B [1, 11]: 0 | Mutation frequency [1, 11]: <2.63E−10 | Cell counts plate A [1, 12]: 0 | Cell counts plate B [1, 12]: 0 | Mutation frequency [1, 12]: <2.63E−10 | Cell counts plate A [1, 13]: 0 | Cell counts plate B [1, 13]: 0 | Mutation frequency [1, 13]: <2.63E−10 | Cell counts (mean) ([1]; isolate 6312, drug 0.5 μg/mL): 1 | Cell counts (mean) ([1]; isolate 6312, drug 2 μg/mL): 1 | Cell counts (mean) ([1]; isolate 6312, drug 8 μg/mL): 1 | Cell counts plate A [1, 14]: 0 | Cell counts plate B [1, 14]: 0 | Mutation frequency [1, 14]: <2.56E−10 | Cell counts plate A [1, 15]: 0 | Cell counts plate B [1, 15]: 0 | Mutation frequency [1, 15]: <2.56E−10 | Cell counts plate A [1, 16]: 0 | Cell counts plate B [1, 16]: 0 | Mutation frequency [1, 16]: <2.56E−10 | MIC [2]: 0.015 µg/mL (≈ 0.0124 µM) | MIC [3]: 0.25 µg/mL (≈ 0.207 µM) | MIC ([4]; read-out: MIC over all strains under test, 23 MRSA isolates): 0.015 µg/mL (≈ 0.0124 µM) | MIC ([4]; strain 3085, LEV^S RIF^S): 0.015 µg/mL (≈ 0.0124 µM) | MIC ([4]; strain 3090, LEV^R RIF^S): 0.015 µg/mL (≈ 0.0124 µM) | MIC ([4]; strain 3094, LEV^R RIF^S): 0.015 µg/mL (≈ 0.0124 µM) | MIC ([4]; strain 3098, LEV^S RIF^S): 0.015 µg/mL (≈ 0.0124 µM) | MIC ([4]; strain 3265, LEV^R RIF^S): 0.015 µg/mL (≈ 0.0124 µM) | MIC ([4]; strain 3266, LEVR RIFS): 0.015 µg/mL (≈ 0.0124 µM) | MIC ([4]; strain 3270, LEV^R RIF^S): 0.015 µg/mL (≈ 0.0124 µM) | MIC ([4]; strain 3271, LEV^R RIF^S): 0.015 µg/mL (≈ 0.0124 µM) | MIC ([4]; strain 3277, LEV^S RIF^S): 0.015 µg/mL (≈ 0.0124 µM) | MIC ([4]; strain 3278, LEV^S RIF^S): 0.015 µg/mL (≈ 0.0124 µM) | MIC ([4]; strain 6312, LEV^R RIF^S): 0.015 µg/mL (≈ 0.0124 µM) | MIC ([4]; strain 6313, LEV^R RIF^S): 0.015 µg/mL (≈ 0.0124 µM) | MIC ([4]; strain 6315, LEV^R RIF^S): 0.015 µg/mL (≈ 0.0124 µM) | MIC ([4]; strain 6498, LEV^R RIF^S): 0.015 µg/mL (≈ 0.0124 µM) | MIC ([4]; strain 6501, LEV^R RIF^S): 0.015 µg/mL (≈ 0.0124 µM) | MIC ([4]; strain 6505, LEV^R RIF^S): 0.015 µg/mL (≈ 0.0124 µM) | MIC ([4]; strain 7771, LEV^R RIF^S): 0.015 µg/mL (≈ 0.0124 µM) | MIC ([4]; strain 7772, LEV^S RIF^S): 0.015 µg/mL (≈ 0.0124 µM) | MIC ([4]; strain 7773, LEV^R RIF^S): 0.015 µg/mL (≈ 0.0124 µM) | MIC ([4]; strain 7774, LEV^R RIF^S): 0.015 µg/mL (≈ 0.0124 µM) | MIC ([4]; strain 7775, LEV^R): 0.015 µg/mL (≈ 0.0124 µM)
